# Earlier results, collected in US20260263463A1, “FORMULATIONS OF DANICOPAN AND METHODS OF USE THEREOF” (Alexion Pharmaceuticals, Inc., priority 2023, published 2026).
# Settings: doses of up to 1,600 mg; cited from earlier work
smiles,measurement,value
"CC(=O)c1nn(CC(=O)N2C[C@H](F)C[C@H]2C(=O)Nc2cccc(Br)n2)c2ccc(-c3cnc(C)nc3)cc12 [Danicopan, danicopan]",adverse effects,no adverse effects
